Measurements reported in ChEMBL document CHEMBL4699558, “Lead optimization of 8-(methylamino)-2-oxo-1,2-dihydroquinolines as bacterial type II topoisomerase inhibitors” (Bioorg Med Chem, 2020).
Values after ≈ are worked out from the molar mass of the structure shown.

Tests used:
[1] = system: Staphylococcus aureus; experiment: Antibacterial activity against Staphylococcus aureus ATCC 29213 by CLSI method; assay type: functional
[2] = system: Escherichia coli; experiment: Antibacterial activity against Escherichia coli ATCC 25922 in presence of PAbetaN by CLSI method; assay type: functional
[3] = system: Escherichia coli; experiment: Antibacterial activity against Escherichia coli ATCC 25922 by CLSI method; assay type: functional
[4] = molecular target: DNA gyrase (Escherichia coli, UniProt P0AES4+P0AES6); experiment: Inhibition of Escherichia coli DNA gyrase by measuring supercoiling activity incubated for 60 mins by fluorescence based assay; assay type: protein-complex assay
[5] = Inhibition of Escherichia coli topoisomerase IV by measuring relaxation activity incubated for 30 mins by fluorescence based assay
[6] = system: Streptococcus pneumoniae; experiment: Antibacterial activity against genotype penicillin-resistant Streptococcus pneumoniae by CLSI method; assay type: functional
[7] = system: Streptococcus pneumoniae; experiment: Antibacterial activity against Streptococcus pneumoniae ATCC 49619 by CLSI method; assay type: functional
[8] = system: Enterococcus faecalis; experiment: Antibacterial activity against vancomycin-resistant Enterococcus faecalis ATCC 51575 by CLSI method; assay type: functional
[9] = system: Enterococcus faecalis; experiment: Antibacterial activity against Enterococcus faecalis ATCC 29212 by CLSI method; assay type: functional
[10] = system: Staphylococcus aureus; experiment: Antibacterial activity against hospital-acquired Methicillin -resistant Staphylococcus aureus ATCC BAA-811 by CLSI method; assay type: functional
[11] = molecular target: DNA topoisomerase 2-alpha (Homo sapiens, UniProt P11388); experiment: Inhibition of human topoisomerase 2alpha; assay type: ADME
[12] = molecular target: Voltage-gated inwardly rectifying potassium channel KCNH2 (Homo sapiens, UniProt Q12809); experiment: Inhibition of human ERG expressed in CHO cells by Q-patch clamp assay
[13] = Cytotoxicity against human HepG2 cells assessed as reduction in cell viability at 10 uM incubated for 48 hrs by CCK-8 assay
[14] = system: Enterococcus faecium; experiment: Antibacterial activity against Enterococcus faecium ATCC 35667 by CLSI method; assay type: functional
[15] = system: Enterococcus faecium; experiment: Antibacterial activity against vancomycin-resistant Enterococcus faecium ATCC 51559 by CLSI method; assay type: functional
[16] = system: Streptococcus anginosus; experiment: Antibacterial activity against Streptococcus anginosus ATCC 33397 by CLSI method; assay type: functional
[17] = Cytotoxicity against human HepG2 cells assessed as reduction in cell viability at 50 uM incubated for 48 hrs by CCK-8 assay
[18] = system: Staphylococcus aureus; experiment: Antibacterial activity against community-acquired Methicillin -resistant Staphylococcus aureus ATCC BAA-1556 by CLSI method; assay type: functional
[19] = system: Haemophilus influenzae; experiment: Antibacterial activity against Haemophilus influenzae ATCC 43095 by CLSI method; assay type: functional
[20] = system: Prevotella melaninogenica; experiment: Antibacterial activity against Prevotella melaninogenica JCM6325 by CLSI method; assay type: functional
[21] = system: Porphyromonas gingivalis; experiment: Antibacterial activity against Porphyromonas gingivalis JCM8525 by CLSI method; assay type: functional
[22] = system: Bacteroides fragilis; experiment: Antibacterial activity against Bacteroides fragilis ATCC 25285 by CLSI method; assay type: functional
[23] = system: Clostridioides difficile; experiment: Antibacterial activity against Clostridioides difficile ATCC 700057 by CLSI method; assay type: functional
[24] = system: Peptostreptococcus anaerobius; experiment: Antibacterial activity against Peptostreptococcus anaerobius ATCC 27337 by CLSI method; assay type: functional
[25] = system: Staphylococcus aureus; experiment: Antibacterial activity against Methicillin-resistant Staphylococcus aureus by CLSI method; assay type: functional
[26] = system: Enterococcus; experiment: Antibacterial activity against Vancomycin-resistant Enterococcus by CLSI method; assay type: functional

Sequence of DNA topoisomerase 2-alpha (P11388 whole entry): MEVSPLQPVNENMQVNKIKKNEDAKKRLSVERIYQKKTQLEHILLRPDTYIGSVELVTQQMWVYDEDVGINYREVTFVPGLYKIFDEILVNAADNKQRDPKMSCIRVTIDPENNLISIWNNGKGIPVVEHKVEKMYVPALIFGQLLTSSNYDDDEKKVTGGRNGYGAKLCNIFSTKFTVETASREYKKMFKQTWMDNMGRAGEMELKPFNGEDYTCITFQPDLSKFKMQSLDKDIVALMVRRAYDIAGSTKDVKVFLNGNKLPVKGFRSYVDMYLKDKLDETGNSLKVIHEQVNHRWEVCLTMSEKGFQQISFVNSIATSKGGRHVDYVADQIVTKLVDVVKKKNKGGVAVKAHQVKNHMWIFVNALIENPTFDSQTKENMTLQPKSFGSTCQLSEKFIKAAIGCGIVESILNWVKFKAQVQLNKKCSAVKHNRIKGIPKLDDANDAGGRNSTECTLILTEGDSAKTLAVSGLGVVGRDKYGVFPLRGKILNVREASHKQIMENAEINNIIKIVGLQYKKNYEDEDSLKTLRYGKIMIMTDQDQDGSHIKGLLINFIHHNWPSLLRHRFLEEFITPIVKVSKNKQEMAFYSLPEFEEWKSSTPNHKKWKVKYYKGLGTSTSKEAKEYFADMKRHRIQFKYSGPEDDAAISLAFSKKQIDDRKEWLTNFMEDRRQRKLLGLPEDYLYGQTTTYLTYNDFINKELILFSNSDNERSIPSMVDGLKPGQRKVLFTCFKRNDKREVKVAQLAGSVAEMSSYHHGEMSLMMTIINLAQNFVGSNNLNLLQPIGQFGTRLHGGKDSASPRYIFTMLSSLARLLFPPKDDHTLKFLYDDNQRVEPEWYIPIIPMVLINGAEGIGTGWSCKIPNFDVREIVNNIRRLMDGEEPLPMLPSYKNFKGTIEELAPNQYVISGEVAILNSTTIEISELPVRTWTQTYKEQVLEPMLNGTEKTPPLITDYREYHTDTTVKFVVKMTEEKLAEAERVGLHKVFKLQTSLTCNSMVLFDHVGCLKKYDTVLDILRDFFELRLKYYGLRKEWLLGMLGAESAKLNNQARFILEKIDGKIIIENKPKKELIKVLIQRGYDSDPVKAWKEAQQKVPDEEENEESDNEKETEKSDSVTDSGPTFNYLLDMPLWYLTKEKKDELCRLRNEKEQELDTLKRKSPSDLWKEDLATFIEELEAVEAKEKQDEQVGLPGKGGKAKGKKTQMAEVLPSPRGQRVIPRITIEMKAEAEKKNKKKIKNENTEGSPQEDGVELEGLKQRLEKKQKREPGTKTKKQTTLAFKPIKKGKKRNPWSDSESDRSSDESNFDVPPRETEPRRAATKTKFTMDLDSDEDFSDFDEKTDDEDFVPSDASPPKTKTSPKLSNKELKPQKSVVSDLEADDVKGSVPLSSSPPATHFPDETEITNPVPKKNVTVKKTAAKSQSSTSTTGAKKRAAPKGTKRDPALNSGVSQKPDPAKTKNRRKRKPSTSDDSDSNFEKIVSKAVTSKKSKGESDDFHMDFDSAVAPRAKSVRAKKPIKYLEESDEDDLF
Sequence of Voltage-gated inwardly rectifying potassium channel KCNH2 (Q12809 whole entry): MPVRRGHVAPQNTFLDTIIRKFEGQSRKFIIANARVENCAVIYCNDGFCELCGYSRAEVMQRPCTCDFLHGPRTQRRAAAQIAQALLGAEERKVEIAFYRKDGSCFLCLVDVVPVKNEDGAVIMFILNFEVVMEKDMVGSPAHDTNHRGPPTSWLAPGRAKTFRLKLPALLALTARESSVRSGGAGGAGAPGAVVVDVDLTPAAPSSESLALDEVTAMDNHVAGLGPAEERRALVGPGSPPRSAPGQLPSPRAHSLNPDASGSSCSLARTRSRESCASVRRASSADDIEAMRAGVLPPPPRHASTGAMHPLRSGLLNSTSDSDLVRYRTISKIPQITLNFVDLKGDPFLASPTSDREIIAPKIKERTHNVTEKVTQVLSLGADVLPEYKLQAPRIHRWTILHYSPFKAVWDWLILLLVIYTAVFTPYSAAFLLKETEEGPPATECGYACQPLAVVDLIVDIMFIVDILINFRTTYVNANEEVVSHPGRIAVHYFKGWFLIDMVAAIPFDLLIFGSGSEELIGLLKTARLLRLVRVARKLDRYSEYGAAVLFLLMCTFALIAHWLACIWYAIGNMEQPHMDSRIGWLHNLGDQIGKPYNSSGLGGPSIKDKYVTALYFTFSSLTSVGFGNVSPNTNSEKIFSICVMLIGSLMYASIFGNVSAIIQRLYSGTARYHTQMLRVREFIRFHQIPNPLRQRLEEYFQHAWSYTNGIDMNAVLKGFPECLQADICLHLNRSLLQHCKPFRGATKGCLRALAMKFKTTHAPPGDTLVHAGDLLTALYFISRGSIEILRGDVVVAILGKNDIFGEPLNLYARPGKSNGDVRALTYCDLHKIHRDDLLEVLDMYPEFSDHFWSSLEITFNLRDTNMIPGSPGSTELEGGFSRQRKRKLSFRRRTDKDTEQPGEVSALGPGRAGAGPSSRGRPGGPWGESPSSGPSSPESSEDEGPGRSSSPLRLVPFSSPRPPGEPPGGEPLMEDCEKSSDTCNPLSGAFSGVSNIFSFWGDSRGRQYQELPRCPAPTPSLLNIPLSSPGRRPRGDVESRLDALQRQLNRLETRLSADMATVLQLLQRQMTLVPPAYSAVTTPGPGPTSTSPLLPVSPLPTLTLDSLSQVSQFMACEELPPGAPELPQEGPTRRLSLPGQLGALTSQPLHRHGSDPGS

| Compound | MIC [1] | MIC [2] | MIC [3] | IC50 [4] | IC50 [5] | MIC [7] | MIC [9] | MIC [16] | also measured |
| --- | --- | --- | --- | --- | --- | --- | --- | --- | --- |
| CNc1cc(F)cc2cc(C(=O)Nc3ccc(C(=O)O)cc3CN(C)C3CCCCC3)c(=O)[nH]c12.Cl | 2 µg/mL | ≤ 0.03 µg/mL | 8 µg/mL | 0.53 nM | 47.4 nM |  |  |  |  |
| CC[C@H]1OC(=O)[C@H](C)[C@@H](O[C@H]2C[C@@](C)(OC)[C@@H](O)[C@H](C)O2)[C@H](C)[C@@H](O[C@@H]2O[C@H](C)C[C@H](N(C)C)[C@H]2O)[C@](C)(O)C[C@@H](C)CN(C)[C@H](C)[C@@H](O)[C@]1(C)O [AZITHROMYCIN] |  |  |  |  |  |  |  |  | MIC50 [6]: > 128 µg/mL; MIC90 [6]: > 128 µg/mL |
| C[C@@H](O)[C@H]1C(=O)N2C(C(=O)O)=C(S[C@@H]3CN[C@H](C(=O)N(C)C)C3)[C@H](C)[C@H]12 [MEROPENEM] |  |  |  |  |  |  |  |  | MIC50 [6]: 0.5 µg/mL (≈ 1.3 µM); MIC90 [6]: 1 µg/mL (≈ 2.61 µM) |
| CNc1cc(F)cc2c(O)c(C(=O)Nc3ccc(C(=O)NS(=O)(=O)N(C)C)cc3)c(=O)[nH]c12 |  | ≤ 0.015 µg/mL | 1 µg/mL (≈ 2.09 µM) | 2.66 nM | 127 nM | 0.06 µg/mL (≈ 0.126 µM) | 0.015 µg/mL (≈ 0.0314 µM) | 0.12 µg/mL (≈ 0.251 µM) | MIC [8]: 0.015 µg/mL (≈ 0.0314 µM); MIC [10]: 1 µg/mL (≈ 2.09 µM); IC50 [11]: 20900 nM; IC50 [12]: > 30000 nM; cytotoxicity at 48 h, 10 µM ([13]; HepG2 cells): 3.61%; MIC [14]: 0.03 µg/mL (≈ 0.0628 µM); MIC [15]: 0.03 µg/mL (≈ 0.0628 µM); cytotoxicity at 48 h, 50 µM ([17]; HepG2 cells): 38%; MIC [18]: 1 µg/mL (≈ 2.09 µM); MIC [19]: ≤ 0.015 µg/mL |
| CNc1cc(F)cc2cc(C(=O)Nc3ccc(CO)cc3CN(CCO)C3CCCCC3)c(=O)[nH]c12 | 1 µg/mL (≈ 2.01 µM) | ≤ 0.03 µg/mL |  | 1.6 nM |  | 0.06 µg/mL (≈ 0.121 µM) | 0.03 µg/mL (≈ 0.0604 µM) | 0.06 µg/mL (≈ 0.121 µM) | MIC [8]: 0.015 µg/mL (≈ 0.0302 µM); MIC [10]: 1 µg/mL (≈ 2.01 µM); IC50 [11]: > 100000 nM; cytotoxicity at 48 h, 10 µM ([13]; hepg2): -15.3%; MIC [20]: > 32 µg/mL; MIC [21]: 4 µg/mL (≈ 8.06 µM); MIC [15]: 0.25 µg/mL (≈ 0.503 µM); MIC [22]: > 32 µg/mL; cytotoxicity at 48 h, 50 µM ([17]; hepg2): 98.5%; MIC [18]: 2 µg/mL (≈ 4.03 µM) |
| CCCCCN(C)Cc1cc(C(=O)O)ccc1NC(=O)c1cc2cc(F)cc(NC)c2[nH]c1=O | 0.5 µg/mL (≈ 1.07 µM) | ≤ 0.03 µg/mL | 4 µg/mL (≈ 8.54 µM) | 0.21 nM | 41.4 nM |  |  |  |  |
| CNc1cc(F)cc2cc(C(=O)Nc3ccc(C(=O)NS(=O)(=O)N(C)C)cc3)c(=O)[nH]c12 |  | ≤ 0.015 µg/mL | 16 µg/mL (≈ 34.7 µM) | 0.43 nM | 51.9 nM | 0.06 µg/mL (≈ 0.13 µM) | 0.03 µg/mL (≈ 0.065 µM) | 0.12 µg/mL (≈ 0.26 µM) | MIC [14]: 0.06 µg/mL (≈ 0.13 µM); MIC [19]: 0.06 µg/mL (≈ 0.13 µM) |
| CNc1cc(F)cc2cc(C(=O)Nc3cnc(C(=O)O)nc3)c(=O)[nH]c12 | > 16 µg/mL | > 16 µg/mL | > 16 µg/mL | 0.95 nM | 32.5 nM |  |  |  |  |
| CNc1cc(F)cc2c(O)c(C(=O)Nc3ccc(C(=O)O)cc3CN3CCCCC3)c(=O)[nH]c12.O=C(O)C(F)(F)F |  | ≤ 0.015 µg/mL | 8 µg/mL | 7.53 nM | 4930 nM | 0.5 µg/mL | 0.12 µg/mL | 0.5 µg/mL | MIC [14]: 1 µg/mL; MIC [19]: 0.12 µg/mL |
| CCC[C@@H]1C[C@@H](C(=O)N[C@@H]([C@H]2O[C@H](SC)[C@H](O)[C@@H](O)[C@H]2O)[C@H](C)Cl)N(C)C1 [CLINDAMYCIN] |  |  |  |  |  |  |  |  | MIC [20]: 0.03 µg/mL (≈ 0.0706 µM); MIC [23]: 8 µg/mL (≈ 18.8 µM); MIC [21]: ≤ 0.015 µg/mL; MIC [22]: 1 µg/mL (≈ 2.35 µM); MIC [24]: 0.25 µg/mL (≈ 0.588 µM) |
| CNc1cc(F)cc2cc(C(=O)Nc3ccc(C(=O)NCCN4CCOCC4)cc3)c(=O)[nH]c12 | > 16 µg/mL | 0.06 µg/mL | 4 µg/mL (≈ 8.56 µM) | 7.29 nM | 1300 nM |  |  |  |  |
| CCCCCCCCCC(=O)N[C@@H](Cc1c[nH]c2ccccc12)C(=O)N[C@H](CC(N)=O)C(=O)N[C@@H](CC(=O)O)C(=O)N[C@@H]1C(=O)NCC(=O)N[C@@H](CCCN)C(=O)N[C@@H](CC(=O)O)C(=O)N[C@H](C)C(=O)N[C@@H](CC(=O)O)C(=O)NCC(=O)N[C@H](CO)C(=O)N[C@@H]([C@H](C)CC(=O)O)C(=O)N[C@@H](CC(=O)c2ccccc2N)C(=O)O[C@@H]1C |  |  |  |  |  |  |  |  | MIC50 [25]: 1 µg/mL (≈ 0.617 µM); MIC90 [25]: 1 µg/mL (≈ 0.617 µM); MIC50 [26]: 2 µg/mL (≈ 1.23 µM); MIC90 [26]: 4 µg/mL (≈ 2.47 µM) |
